Among the data in US20120270237A9, “METHODS FOR THE IDENTIFICATION OF KINASE INTERACTING MOLECULES AND FOR THE PURIFICATION OF KINASE PROTEINS” (Cellzone AG, priority 2009, published 2012) are inhibition values, retold here.

Holding throughout (assay): Kinobeads competition binding, HL60 cell lysate
Common to all, as to settings: 10 μM free compound

One experiment concerns the target T1, TEC (Homo sapiens, UniProt P42680).
T1 sequence (P42680 1-631): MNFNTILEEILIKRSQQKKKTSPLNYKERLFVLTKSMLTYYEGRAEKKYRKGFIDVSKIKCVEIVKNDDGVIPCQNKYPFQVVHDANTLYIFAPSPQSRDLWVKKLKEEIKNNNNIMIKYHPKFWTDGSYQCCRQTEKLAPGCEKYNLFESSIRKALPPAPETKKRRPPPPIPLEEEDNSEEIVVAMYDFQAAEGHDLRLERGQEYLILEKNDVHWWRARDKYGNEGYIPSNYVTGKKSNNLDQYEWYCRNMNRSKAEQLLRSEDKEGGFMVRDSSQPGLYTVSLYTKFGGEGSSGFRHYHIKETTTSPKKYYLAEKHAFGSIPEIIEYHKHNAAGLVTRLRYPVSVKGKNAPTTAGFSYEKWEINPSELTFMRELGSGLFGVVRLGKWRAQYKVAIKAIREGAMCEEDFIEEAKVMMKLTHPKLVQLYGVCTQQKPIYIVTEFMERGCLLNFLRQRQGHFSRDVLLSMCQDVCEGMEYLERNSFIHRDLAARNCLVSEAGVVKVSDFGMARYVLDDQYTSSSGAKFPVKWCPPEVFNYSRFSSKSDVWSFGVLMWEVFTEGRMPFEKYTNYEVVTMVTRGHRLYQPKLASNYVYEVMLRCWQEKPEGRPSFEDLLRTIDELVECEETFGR
As to the method: (§1) To one aliquot of cell lysate 10 μM of the free compound (FIG. 3, CZC31326) was added and allowed to bind to proteins in the lysate. Then the affinity matrix with the immobilized compound (Example 1) was added to capture proteins that were not interacting with the previously added free compound. Beads were separated from the lysate and bead bound proteins were eluted in SDS sample buffer and subsequently separated by SDS-Polyacrylamide gel electrophoresis (FIG. 4). Suitable gel bands were cut out and subjected to in-gel proteolytic digestion with trypsin. The second lysate aliquot was processed identically, however no free compound was added (DMSO solvent control). Peptides originating from samples 1 and 2 were labeled with iTRAQ reagents (iTRAQ 114 and iTRAQ 117) and the combined samples were analyzed with a nano-flow liquid chromatography system coupled online to a tandem mass spectrometer (LC-MS/MS) experiment followed by iTRAQ reporter ion quantification in the MS/MS spectra (Ross et al., 2004. Mol. Cell. Proteomics 3(12):1154-1169). Further experimental protocols can be found in WO2006/134056 and a previous publication (Bantscheff et al., 2007. Nature Biotechnology 25, 1035-1044). Sepharose-beads with the immobilized compound (100 μl beads per pull-down experiment) were equilibrated in lysis buffer and incubated with a cell lysate sample containing 50 mg of protein on an end-over-end shaker (Roto Shake Genie, Scientific Industries Inc.) for 2 hours at 4° C. Beads were collected, transferred to Mobicol-columns (MoBiTech 10055) and washed with 10 ml lysis buffer containing 0.4% NP40 detergent, followed by 5 ml lysis buffer containing 0.2% detergent. To elute bound proteins, 60 μl 2×SDS sample buffer was added to the column. The column was incubated for 30 minutes at 50° C. and the eluate was transferred to a siliconized microfuge tube by centrifugation. Proteins were then alkylated with 108 mM iodoacetamid. Proteins were then separated by SDS-Polyacrylamide electrophoresis (SDS-PAGE). The peptide extracts of samples treated with 10 μM of free compound (CZC31326) and the solvent control (0.5% DMSO) were treated with different variants of the isobaric tagging reagent (iTRAQ Reagents Multiplex Kit, part number 4352135, Applied Biosystems, Foster City, Calif., USA). The iTRAQ reagents are a set of multiplexed, amine-specific, stable isotope reagents that can label peptides on amino groups in up to four different biological samples enabling simultaneous identification and quantitation of peptides. The iTRAQ reagents were used according to instructions provided by the manufacturer. The samples were resuspended in 10 μl 50 mM TEAB solution, pH 8.5 and 10 μl ethanol were added. The iTRAQ reagent was dissolved in 120 μl ethanol and 10 μl of reagent solution were added to the sample. The labeling reaction was performed at room temperature for one hour on a horizontal shaker and stopped by adding 5 μl of 100 mM TEAB and 100 mM glycine in water. The two labeled sampled were then combined, dried in a vacuum centrifuge and resuspended in 10 μl of 0.1% formic acid in water. Relative protein quantitation was performed using peak areas of iTRAQ reporter ion signals essentially as described in an earlier publication (Bantscheff et al., 2007. Nature Biotechnology 25, 1035-1044).

For another experiment, the target named is T2, CLK1 (Homo sapiens, UniProt P49759).
T2 construct: endogenous in cells; host or cells: HL60 cells
As to the method: as §1

For another experiment, the target named is T3, ALK4 (Homo sapiens, UniProt P36896).
T3 construct: endogenous in cells; host or cells: HL60 cells
As to the method: as §1

For a further experiment, the target named is T4, KHS1 (Homo sapiens, UniProt Q9Y4K4).
T4 construct: Identified kinases with CZC31326 from HL60 lysate; endogenous in cells; host or cells: HL60
As to the method:
as §1

The target in another experiment is T5, HIPK1 (Homo sapiens, UniProt Q86Z02).
T5 construct: endogenous in cells; host or cells: HL60
As to the method: as §1

Another experiment addresses T6, MAP2K5 (Homo sapiens, UniProt Q13163).
T6 sequence (Q13163 1-448): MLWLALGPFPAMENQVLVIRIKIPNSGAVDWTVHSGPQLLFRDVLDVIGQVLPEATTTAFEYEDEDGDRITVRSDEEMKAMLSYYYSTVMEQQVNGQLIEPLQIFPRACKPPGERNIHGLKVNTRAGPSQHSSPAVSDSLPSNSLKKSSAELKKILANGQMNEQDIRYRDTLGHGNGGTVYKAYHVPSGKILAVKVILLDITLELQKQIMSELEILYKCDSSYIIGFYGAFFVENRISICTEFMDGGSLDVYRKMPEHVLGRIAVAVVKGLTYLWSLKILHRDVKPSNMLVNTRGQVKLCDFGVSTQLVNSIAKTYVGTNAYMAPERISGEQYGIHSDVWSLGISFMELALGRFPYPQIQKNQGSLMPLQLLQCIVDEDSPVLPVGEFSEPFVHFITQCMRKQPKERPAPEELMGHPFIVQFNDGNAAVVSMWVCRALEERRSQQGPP
As to the method:
as §1

The target of a further experiment is T7, DYRKIA (Homo sapiens, UniProt Q13627).
T7 construct: endogenous in cells; host or cells: HL60 (DSMZ ACC3)
As to the method: as §1

T5 sequence (Q86Z02 whole entry): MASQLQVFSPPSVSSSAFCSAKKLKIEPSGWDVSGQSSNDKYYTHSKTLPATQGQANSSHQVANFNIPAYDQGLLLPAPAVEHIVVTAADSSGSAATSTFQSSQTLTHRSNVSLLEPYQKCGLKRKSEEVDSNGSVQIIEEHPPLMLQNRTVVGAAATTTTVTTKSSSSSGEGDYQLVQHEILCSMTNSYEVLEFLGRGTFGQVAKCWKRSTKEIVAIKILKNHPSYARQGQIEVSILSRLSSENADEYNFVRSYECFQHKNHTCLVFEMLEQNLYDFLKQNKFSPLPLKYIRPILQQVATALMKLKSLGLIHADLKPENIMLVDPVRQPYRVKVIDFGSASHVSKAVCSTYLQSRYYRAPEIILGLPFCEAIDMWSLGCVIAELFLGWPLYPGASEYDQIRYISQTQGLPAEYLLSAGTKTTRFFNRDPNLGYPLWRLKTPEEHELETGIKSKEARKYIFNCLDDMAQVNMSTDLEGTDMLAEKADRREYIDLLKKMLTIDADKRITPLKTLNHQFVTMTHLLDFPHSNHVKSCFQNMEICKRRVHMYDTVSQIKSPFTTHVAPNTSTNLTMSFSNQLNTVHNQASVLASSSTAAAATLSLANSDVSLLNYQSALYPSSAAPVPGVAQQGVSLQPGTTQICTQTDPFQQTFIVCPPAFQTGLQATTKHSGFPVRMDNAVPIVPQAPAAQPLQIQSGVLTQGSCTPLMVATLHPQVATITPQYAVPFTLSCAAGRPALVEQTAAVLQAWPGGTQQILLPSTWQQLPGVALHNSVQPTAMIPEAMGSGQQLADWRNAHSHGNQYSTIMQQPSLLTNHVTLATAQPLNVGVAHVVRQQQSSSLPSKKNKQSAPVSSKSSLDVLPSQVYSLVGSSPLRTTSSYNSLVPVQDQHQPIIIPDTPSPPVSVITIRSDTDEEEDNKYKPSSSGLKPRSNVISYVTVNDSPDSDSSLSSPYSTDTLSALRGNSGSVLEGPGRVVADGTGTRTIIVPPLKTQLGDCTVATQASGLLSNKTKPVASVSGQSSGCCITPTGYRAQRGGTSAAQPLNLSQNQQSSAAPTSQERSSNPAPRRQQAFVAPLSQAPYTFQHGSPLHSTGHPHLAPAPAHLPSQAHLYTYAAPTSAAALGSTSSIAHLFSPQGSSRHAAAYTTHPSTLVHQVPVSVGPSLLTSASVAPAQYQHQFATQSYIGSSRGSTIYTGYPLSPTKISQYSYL
T4 sequence (Q9Y4K4 whole entry): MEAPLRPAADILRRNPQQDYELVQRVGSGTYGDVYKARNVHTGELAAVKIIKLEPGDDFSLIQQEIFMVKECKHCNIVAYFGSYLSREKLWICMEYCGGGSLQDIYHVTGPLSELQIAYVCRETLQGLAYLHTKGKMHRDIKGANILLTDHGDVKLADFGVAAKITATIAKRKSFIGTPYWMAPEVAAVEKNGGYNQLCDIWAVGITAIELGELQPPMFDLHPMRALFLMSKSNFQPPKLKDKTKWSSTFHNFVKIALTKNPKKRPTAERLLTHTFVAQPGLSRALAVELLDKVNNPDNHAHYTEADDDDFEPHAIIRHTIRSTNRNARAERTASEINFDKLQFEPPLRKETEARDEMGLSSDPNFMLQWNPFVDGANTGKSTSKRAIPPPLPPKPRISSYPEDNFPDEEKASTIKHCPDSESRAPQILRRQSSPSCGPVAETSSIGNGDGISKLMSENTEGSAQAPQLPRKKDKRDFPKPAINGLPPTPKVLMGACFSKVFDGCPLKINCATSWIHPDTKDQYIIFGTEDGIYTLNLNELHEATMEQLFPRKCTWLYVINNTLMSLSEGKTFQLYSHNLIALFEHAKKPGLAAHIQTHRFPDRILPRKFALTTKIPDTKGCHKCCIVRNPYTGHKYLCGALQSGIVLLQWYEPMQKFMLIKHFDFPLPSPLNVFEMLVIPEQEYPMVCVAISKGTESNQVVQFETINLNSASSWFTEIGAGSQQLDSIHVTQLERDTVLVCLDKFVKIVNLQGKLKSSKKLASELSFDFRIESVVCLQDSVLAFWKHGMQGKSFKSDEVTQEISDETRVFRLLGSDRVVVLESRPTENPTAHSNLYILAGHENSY
T3 sequence (P36896 24-505): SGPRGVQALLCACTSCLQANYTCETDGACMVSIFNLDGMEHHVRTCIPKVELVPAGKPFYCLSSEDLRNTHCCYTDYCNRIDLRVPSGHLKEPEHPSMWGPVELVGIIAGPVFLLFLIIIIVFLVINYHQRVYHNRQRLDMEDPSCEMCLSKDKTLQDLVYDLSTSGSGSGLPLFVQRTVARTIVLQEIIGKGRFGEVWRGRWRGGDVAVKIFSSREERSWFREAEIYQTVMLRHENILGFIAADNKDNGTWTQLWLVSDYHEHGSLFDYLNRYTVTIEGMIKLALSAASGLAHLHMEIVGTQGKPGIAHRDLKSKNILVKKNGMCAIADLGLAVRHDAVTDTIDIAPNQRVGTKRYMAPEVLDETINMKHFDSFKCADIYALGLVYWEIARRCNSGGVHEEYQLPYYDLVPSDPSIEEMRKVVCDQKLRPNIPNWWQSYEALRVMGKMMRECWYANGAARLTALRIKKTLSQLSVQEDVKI
T2 sequence (P49759 whole entry): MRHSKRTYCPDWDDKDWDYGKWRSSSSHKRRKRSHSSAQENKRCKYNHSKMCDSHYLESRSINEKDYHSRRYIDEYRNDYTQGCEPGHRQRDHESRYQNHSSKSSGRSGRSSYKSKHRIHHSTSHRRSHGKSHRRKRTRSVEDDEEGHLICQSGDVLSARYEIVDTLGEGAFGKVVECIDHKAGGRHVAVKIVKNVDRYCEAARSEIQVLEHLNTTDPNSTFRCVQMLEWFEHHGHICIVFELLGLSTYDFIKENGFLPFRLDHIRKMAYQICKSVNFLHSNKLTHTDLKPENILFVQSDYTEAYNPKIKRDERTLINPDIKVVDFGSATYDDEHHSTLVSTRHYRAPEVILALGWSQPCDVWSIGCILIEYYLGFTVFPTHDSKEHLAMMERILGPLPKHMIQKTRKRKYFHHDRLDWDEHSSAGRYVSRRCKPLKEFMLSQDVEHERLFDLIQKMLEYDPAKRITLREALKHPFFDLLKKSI

In the case of `CS(=O)(=O)Nc1ccccc1Nc1nc(Nc2cccc(OCCN)c2)ncc1Cl` [CZC31326, N-(2-(2-(3-(2-aminoethoxy)phenylamino)-5-chloropyrimidin-4-ylamino)phenyl)methanesulfonamide], the inhibition at 10 µM amounted to 97% at TEC; 97.4% on CLK1; 94.5% at ALK4; 93.2% on KHS1; 97.1% on HIPK1; 93.1% at MAP2K5. The inhibition at 10 µM at DYRKIA stood at 96.1%.

As a reminder, the inhibition is how much of the control response was suppressed. A higher inhibition goes with a response far below the control.
